Each structure is given as a SMILES string.

T1 sequence (Q92918 whole entry): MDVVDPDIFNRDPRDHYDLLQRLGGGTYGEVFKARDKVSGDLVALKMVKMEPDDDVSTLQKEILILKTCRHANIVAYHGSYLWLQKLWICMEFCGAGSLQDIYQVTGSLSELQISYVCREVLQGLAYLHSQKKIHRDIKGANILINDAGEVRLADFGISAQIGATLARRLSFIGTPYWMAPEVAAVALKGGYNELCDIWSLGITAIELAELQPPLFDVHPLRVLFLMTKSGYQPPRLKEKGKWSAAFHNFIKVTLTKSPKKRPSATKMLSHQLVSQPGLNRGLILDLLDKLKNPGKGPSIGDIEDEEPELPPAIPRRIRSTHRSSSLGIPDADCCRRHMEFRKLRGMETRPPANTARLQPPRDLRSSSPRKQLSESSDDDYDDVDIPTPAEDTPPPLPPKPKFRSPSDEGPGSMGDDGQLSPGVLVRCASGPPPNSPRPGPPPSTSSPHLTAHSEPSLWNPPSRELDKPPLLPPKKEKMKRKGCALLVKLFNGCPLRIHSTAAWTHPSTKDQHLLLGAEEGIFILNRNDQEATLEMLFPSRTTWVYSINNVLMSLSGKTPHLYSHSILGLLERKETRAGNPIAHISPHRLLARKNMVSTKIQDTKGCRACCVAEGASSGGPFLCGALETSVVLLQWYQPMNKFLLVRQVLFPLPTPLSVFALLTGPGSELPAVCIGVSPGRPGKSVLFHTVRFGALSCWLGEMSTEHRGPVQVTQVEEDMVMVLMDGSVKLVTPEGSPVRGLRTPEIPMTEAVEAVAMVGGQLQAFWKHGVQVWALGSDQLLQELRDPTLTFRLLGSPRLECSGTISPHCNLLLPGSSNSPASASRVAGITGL

The experiment addresses T1, HPK1 (Homo sapiens, UniProt Q92918).
T1 construct: A HiBiT tag was introduced by CRISPR on the N terminus of HPK1 in Jurkat cells; host or cells: Jurkat (ATCC TIB-152), monoclonal CRISPR HiBiT knock-in line
In words: HPK1 Cellular HiBiT Degradation Assay. It counts as cell-based. Particulars: HiBiT-tagged HPK1 Jurkat cells, 24 hours, 10 uM to 0.1 nM; Dmax = 100 minus lowest % HPK1 remaining vs DMSO vehicle. Summed up: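 Dmax is derived from four-parameter curves of % HPK1 remaining, as 100 minus the lowest value, normalized to DMSO-treated cells with parental Jurkat background subtracted. HiBiT-HPK1 knock-in Jurkat cells got compound for 24 hours (final 10 uM to 0.1 nM, 11 points) before lytic HiBiT luminescence. Cytotoxicity was checked on parallel CellTiter-Glo plates.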
On the technique in general: The HiBiT peptide binds its large partner to form an active luciferase.
By Dmax is commonly meant the greatest extent of degradation seen. Read a low Dmax as a partial loss of target. Turning to `Cc1cc(F)c(Nc2nc(-c3ccc4c(c3)N([C@H]3C[C@@H](N5CCCCC5)C3)C(=O)C43CCN(C(=O)CN4CCN(c5ccc(CC(=O)NCCNc6cccc7c6C(=O)N(C6CCC(=O)NC6=O)C7=O)cc5)CC4)CC3)cc3ncn(C(C)C)c23)cc1C(=O)NC(C)C` (stereo partly drawn) [Example 44, 5-({6-[1′-(2-{4-[4-({[2-({2-[2,6-dioxopiperidin-3-yl]-1,3-dioxo-2,3-dihydro-1H-isoindol-4-yl}amino)ethyl]carbamoyl}methyl)phenyl]piperazin-1-yl}acetyl)-2-oxo-1-[(1s,3s)-3-(piperidin-1-yl)cyclobutyl]-1,2-dihydrospiro[indole-3,4′-piperidin]-6-yl]-3-(propan-2-yl)-3H-imidazo[4,5-c]pyridin-4-yl}amino)-4-fluoro-2-methyl-N-(propan-2-yl)benzamide], the greatest degradation seen (Dmax) fell in the range of 45 to 65%. Turning to `Cc1cc(F)c(Nc2nc(-c3ccc4c(c3)N([C@H]3C[C@@H](N5CCCCC5)C3)C(=O)C43CCN(C(=O)C4CCN(CC5CCN(c6ccc7c(c6)C(=O)N(C6CCC(=O)NC6=O)C7=O)CC5)CC4)CC3)cc3ncn(C(C)C)c23)cc1C(=O)NC(C)C` (stereo partly drawn) [Example 45, 5-{[6-(1′-{1-[(1-{2-[2,6-dioxopiperidin-3-yl]-1,3-dioxo-2,3-dihydro-1H-isoindol-5-yl}piperidin-4-yl)methyl]piperidine-4-carbonyl}-2-oxo-1-[(1s,3s)-3-(piperidin-1-yl)cyclobutyl]-1,2-dihydrospiro[indole-3,4′-piperidin]-6-yl)-3-(propan-2-yl)-3H-imidazo[4,5-c]pyridin-4-yl]amino}-4-fluoro-2-methyl-N-(propan-2-yl)benzamide], the greatest degradation seen (Dmax) was over 65%. The same measure, in the same setting: as for `Cc1cc(F)c(Nc2nc(-c3ccc4c(c3)N([C@H]3C[C@@H](N5CCCCC5)C3)C(=O)C43CCN(C(=O)CN4CCC5(CC4)CC(C(=O)NCCNc4cccc6c4C(=O)N(C4CCC(=O)NC4=O)C6=O)C5)CC3)cc3ncn(C(C)C)c23)cc1C(=O)NC(C)C` (stereo partly drawn) [Example 46, N-(2-((2-(2,6-dioxopiperidin-3-yl)-1,3-dioxoisoindolin-4-yl)amino)ethyl)-7-(2-(6-(4-((2-fluoro-5-(isopropylcarbamoyl)-4-methylphenyl)amino)-3-isopropyl-3H-imidazo[4,5-c]pyridin-6-yl)-2-oxo-1-((1s,3s)-3-(piperidin-1-yl)cyclobutyl)spiro[indoline-3,4′-piperidin]-1′-yl)-2-oxoethyl)-7-azaspiro[3.5]nonane-2-carboxamide], the figure is 45 to 65%; as for `Cc1cc(F)c(Nc2nc(-c3ccc4c(c3)N([C@H]3C[C@@H](N5CCCCC5)C3)C(=O)C43CCN(C(=O)Cc4ccc(N5CCN(CC(=O)N[C@H](C(=O)N6C[C@H](O)C[C@H]6C(=O)N[C@@H](C)c6ccc(-c7scnc7C)cc6)C(C)(C)C)CC5)cc4)CC3)cc3ncn(C(C)C)c23)cc1C(=O)NC(C)C` [Example 47, (2S,4R)-1-[(2S)-2-(2-{4-[4-(2-{6-[4-({2-fluoro-4-methyl-5-[(propan-2-yl)carbamoyl]phenyl}amino)-3-(propan-2-yl)-3H-imidazo[4,5-c]pyridin-6-yl]-2-oxo-1-[(1s,3s)-3-(piperidin-1-yl)cyclobutyl]-1,2-dihydrospiro[indole-3,4′-piperidin]-1′-yl}-2-oxoethyl)phenyl]piperazin-1-yl}acetamido)-3,3-dimethylbutanoyl]-4-hydroxy-N-[(1S)-1-[4-(4-methyl-1,3-thiazol-5-yl)phenyl]ethyl]pyrrolidine-2-carboxamide], over 65%. The compound `Cc1cc(F)c(Nc2nc(-c3ccc4c(c3)N([C@H]3C[C@@H](N5CCCCC5)C3)C(=O)C43CCN(C(=O)CCC4CCCN(CC(=O)NC(C(=O)N5C[C@H](O)C[C@H]5C(=O)N[C@@H](C)c5ccc(-c6scnc6C)cc5)C(C)(C)C)C4)CC3)cc3ncn(C(C)C)c23)cc1C(=O)NC(C)C` (stereo partly drawn) [Example 48, (2S,4R)-1-((2S)-2-(2-(3-(3-(6-(4-((2-fluoro-5-(isopropylcarbamoyl)-4-methylphenyl)amino)-3-isopropyl-3H-imidazo[4,5-c]pyridin-6-yl)-2-oxo-1-((1s,3s)-3-(piperidin-1-yl)cyclobutyl)spiro[indoline-3,4′-piperidin]-1′-yl)-3-oxopropyl)piperidin-1-yl)acetamido)-3,3-dimethylbutanoyl)-4-hydroxy-N—((S)-1-(4-(4-methylthiazol-5-yl)phenyl)ethyl)pyrrolidine-2-carboxamide] came in with a Dmax of 45 to 65%. Consider `Cc1cc(F)c(Nc2nc(-c3ccc4c(c3)N([C@H]3C[C@@H](N5CCCCC5)C3)C(=O)C43CCN(C(=O)C4CCN(C(=O)C5CCN(C(=O)CNc6cccc7c6C(=O)N(C6CCC(=O)NC6=O)C7=O)CC5)C4)CC3)cc3ncn(C(C)C)c23)cc1C(=O)NC(C)C` (stereo partly drawn) [Example 49], for which the greatest degradation seen (Dmax) fell in the range of 45 to 65%. Compound `Cc1cc(F)c(Nc2nc(-c3ccc4c(c3)N([C@H]3C[C@@H](N5CCCCC5)C3)C(=O)C43CCN(C(=O)[C@H]4CC[C@@H](C(=O)N5CCC(Nc6cccc7c6C(=O)N(C6CCC(=O)NC6=O)C7=O)CC5)CC4)CC3)cc3ncn(C(C)C)c23)cc1C(=O)NC(C)C` (stereo partly drawn) [Example 50, 4-fluoro-2-methyl-5-[(6-{2-oxo-1-[(1s,3s)-3-(piperidin-1-yl)cyclobutyl]-1′-[(1S,4s)-4-[4-({2-[2,6-dioxopiperidin-3-yl]-1,3-dioxo-2,3-dihydro-1H-isoindol-4-yl}amino)piperidine-1-carbonyl]cyclohexanecarbonyl]-1,2-dihydrospiro[indole-3,4′-piperidin]-6-yl}-3-(propan-2-yl)-3H-imidazo[4,5-c]pyridin-4-yl)amino]-N-(propan-2-yl)benzamide] yielded a Dmax of 45 to 65%. For `Cc1cc(F)c(Nc2nc(-c3ccc4c(c3)N([C@H]3C[C@@H](N5CCCCC5)C3)C(=O)C43CCN(C(=O)[C@H]4CC[C@H](C(=O)N5CCC(Nc6cccc7c6C(=O)N(C6CCC(=O)NC6=O)C7=O)CC5)CC4)CC3)cc3ncn(C(C)C)c23)cc1C(=O)NC(C)C` (stereo partly drawn) [Example 51, 4-fluoro-2-methyl-5-[(6-{2-oxo-1′-[(R,4R)-4-[4-({2-[2,6-dioxopiperidin-3-yl]-1,3-dioxo-2,3-dihydro-1H-isoindol-4-yl}amino)piperidine-1-carbonyl]cyclohexanecarbonyl]-1-[(1s,3s)-3-(piperidin-1-yl)cyclobutyl]-1,2-dihydrospiro[indole-3,4′-piperidin]-6-yl}-3-(propan-2-yl)-3H-imidazo[4,5-c]pyridin-4-yl)amino]-N-(propan-2-yl)benzamide], the greatest degradation seen (Dmax) is 45 to 65%. As for `Cc1cc(F)c(Nc2nc(-c3ccc4c(c3)N([C@H]3C[C@@H](N5CCCCC5)C3)C(=O)C43CCN(C(=O)[C@@H]4CCN(C(=O)[C@H]5CC[C@H](Nc6cccc7c6C(=O)N(C6CCC(=O)NC6=O)C7=O)CC5)C4)CC3)cc3ncn(C(C)C)c23)cc1C(=O)NC(C)C` (stereo partly drawn) [Example 52, 4-fluoro-2-methyl-5-[(6-{2-oxo-1′-[(3R)-1-[(1R,4R)-4-({2-[2,6-dioxopiperidin-3-yl]-1,3-dioxo-2,3-dihydro-1H-isoindol-4-yl}amino)cyclohexanecarbonyl]pyrrolidine-3-carbonyl]-1-[(1s,3s)-3-(piperidin-1-yl)cyclobutyl]-1,2-dihydrospiro[indole-3,4′-piperidin]-6-yl}-3-(propan-2-yl)-3H-imidazo[4,5-c]pyridin-4-yl)amino]-N-(propan-2-yl)benzamide], the Dmax lay within 45 to 65%. Consider `Cc1cc(F)c(Nc2nc(-c3ccc4c(c3)N([C@H]3C[C@@H](N5CCCCC5)C3)C(=O)C43CCN(C(=O)c4cccc(C5CCN(c6cccc7c6C(=O)N(C6CCC(=O)NC6=O)C7=O)CC5)c4)CC3)cc3ncn(C(C)C)c23)cc1C(=O)NC(C)C` (stereo partly drawn) [Example 53, 5-[(6-{1′-[3-(1-{2-[2,6-dioxopiperidin-3-yl]-1,3-dioxo-2,3-dihydro-1H-isoindol-4-yl}piperidin-4-yl)benzoyl]-2-oxo-1-[(1s,3s)-3-(piperidin-1-yl)cyclobutyl]-1,2-dihydrospiro[indole-3,4′-piperidin]-6-yl}-3-(propan-2-yl)-3H-imidazo[4,5-c]pyridin-4-yl)amino]-4-fluoro-2-methyl-N-(propan-2-yl)benzamide], for which the “Cellular HPK1 HiBiT: Dmax (%)” value was “B (45%≤B≤65%)”. Regarding `Cc1cc(F)c(Nc2nc(-c3ccc4c(c3)N(C3CC(N5CCCCC5)C3)C(=O)C43CCN(C(=O)[C@@H]4CCN(C(=O)[C@H]5CC[C@H](Oc6cccc7c6C(=O)N(C6CCC(=O)NC6=O)C7=O)CC5)C4)CC3)cc3ncn(C(C)C)c23)cc1C(=O)NC(C)C` (stereo partly drawn) [Example 54, 4-fluoro-2-methyl-5-[(6-{2-oxo-1′-[(3R)-1-[(1R,4R)-4-{[2-(2,6-dioxopiperidin-3-yl)-1,3-dioxo-2,3-dihydro-1H-isoindol-4-yl]oxy}cyclohexanecarbonyl]pyrrolidine-3-carbonyl]-1-[(1s,3s)-3-(piperidin-1-yl)cyclobutyl]-1,2-dihydrospiro[indole-3,4′-piperidin]-6-yl}-3-(propan-2-yl)-3H-imidazo[4,5-c]pyridin-4-yl)amino]-N-(propan-2-yl)benzamide], the maximal degradation (Dmax) is under 45%.

Compound `Cc1cc(F)c(Nc2nc(-c3ccc4c(c3)N([C@H]3C[C@@H](N5CCCCC5)C3)C(=O)C43CCN(C(=O)OC4CCN(C(=O)C5CCN(c6ccc7c(c6)C(=O)N(C6CCC(=O)NC6=O)C7=O)CC5)CC4)CC3)cc3ncn(C(C)C)c23)cc1C(=O)NC(C)C` (stereo partly drawn) [Example 55, 1-(1-{2-[2,6-dioxopiperidin-3-yl]-1,3-dioxoisoindol-5-yl}piperidine-4-carbonyl)piperidin-4-yl 6-(4-{[2-fluoro-5-(isopropylcarbamoyl)-4-methylphenyl]amino}-3-isopropylimidazo[4,5-c]pyridin-6-yl)-2-oxo-1-[(1s,3s)-3-(piperidin-1-yl)cyclobutyl]spiro[indole-3,4′-piperidine]-1′-carboxylate] displayed a Dmax of over 65%.

For the origin of these results see patent US11739101B2, “Bifunctional degraders of hematopoietic progenitor kinase and therapeutic uses thereof” (Nurix Therapeutics, Inc., priority 2020, dated 2023).
